In this assay the target is T1, human beta-2 receptor (Homo sapiens, UniProt P07550).
T1 construct: expressed in transfected cells; host or cells: Chinese hamster ovary cells (whole cells or membranes derived from them)
The assay can be described thus: Chinese hamster ovary cells co-expressing the human receptor with a reporter gene, cAMP measurement in whole cells or membranes (Method 2). Conditions: CHO cells or membranes, read-out: pEC50 at the human beta-2 receptor (converted). Type of assay: cell-based.

T1 sequence (P07550 whole entry): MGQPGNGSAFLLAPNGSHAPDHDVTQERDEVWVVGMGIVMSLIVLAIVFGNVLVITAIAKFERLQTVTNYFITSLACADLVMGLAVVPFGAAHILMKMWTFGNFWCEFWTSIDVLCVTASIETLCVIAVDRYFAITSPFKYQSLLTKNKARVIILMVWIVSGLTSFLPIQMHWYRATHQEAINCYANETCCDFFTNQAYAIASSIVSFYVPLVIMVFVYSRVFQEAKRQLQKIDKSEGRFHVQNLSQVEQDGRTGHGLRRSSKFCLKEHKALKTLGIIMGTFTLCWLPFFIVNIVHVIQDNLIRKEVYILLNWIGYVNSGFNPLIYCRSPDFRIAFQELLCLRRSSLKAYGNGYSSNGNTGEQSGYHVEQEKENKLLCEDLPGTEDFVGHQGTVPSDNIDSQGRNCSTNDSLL

Regarding `OCc1cc([C@@H](O)CNCCc2cccc(COCCCc3c(Cl)cccc3Cl)c2)ccc1O` [Example 63, Formic acid compound with 4-((1R)-2-{[2-(3-{[3-(2,6-dichlorophenyl)propoxy]methyl}phenyl)ethyl]amino}-1-hydroxyethyl)-2-(hydroxymethyl)phenol (1:1)], the EC50 is below 1000 nM.
Consider `O=S(=O)(c1cccc(COCc2cccc(CCNC[C@H](O)c3ccc(O)c(CO)c3)c2)c1)C1CCCC1` [Example 35, Formic acid compound with 4-[(1R)-2-({2-[3-({[3-(cyclopentylsulfonyl)benzyl]oxy}methyl)phenyl]ethyl}amino)-1-hydroxyethyl]-2-(hydroxymethyl)phenol (1:1)], for which the EC50 is below 1000 nM.
With `N#Cc1ccc(CCCCOCc2cccc(CCNC[C@H](O)c3ccc(O)c(CO)c3)c2)cc1` [Example 21, Formic acid compound with 4-[4-({3-[2-({(2R)-2-hydroxy-2-[4-hydroxy-3-(hydroxymethyl)phenyl]ethyl}amino)ethyl]benzyl}oxy)butyl]benzonitrile (1:1)] the figure was below 1000 nM; with `C[C@@H](OCc1cccc(CCNC[C@H](O)c2ccc(O)c(CO)c2)c1)c1ccccc1` [Example 44, Formic acid compound with 2-(hydroxymethyl)-4-[(1R)-1-hydroxy-2-({2-[3-({[(1R)-1-phenylethyl]oxy}methyl)phenyl]ethyl}amino)ethyl]phenol (1:1)], below 1000 nM.

Values taken from patent US20070135490A1, “Phenetanolamine derivatives” (priority 2003, published 2007).
